In data set [1] the test system is HEK293(β3) s.c. tumors. Put plainly: Histological distribution of RGD-peptides in excised tumors (CLSM). The settings on record: HEK293(β3) s.c. tumor excised 3 hr after 10 nmol i.v., cryosections. Type of data set: in vivo, Swiss nude mice. The protocol:
Sections of 20–30 μm thickness were fixed with 2% paraformaldehyde at room temperature for 10 min. The nuclei were stained with 5 μM Hoechst 33342, and the coverslips were mounted using Mowiol and kept at 4°C in the dark until observation using CLSM.

Data set [2] deals with HEK293(β3) s.c. tumors. Description: Whole body in vivo optical imaging (fluorescence reflectance) of tumor-bearing mice. The arrangement: species or system Swiss nude mice.
Data set [3] concerns HEK293(β1) cells (αVβ3-negative). Description: In vitro binding of Cy5-labeled peptides, confocal laser scanning microscopy. It is filed as cell-based, human. The settings on record: 0.1 μM Cy5-labeled peptide, 30 min, 37°C, result in words. The method, then: (§1) Cells were seeded on sterilized 18-mm-diameter glass coverslips in 12-well plates (3 × 10^5 cells per well), and incubated overnight at 37°C. […] They were then washed with PBS, fixed with 2% paraformaldehyde at room temperature for 10 min. The nuclei were stained with 5 μM Hoechst 33342, and the coverslips were inverted onto glass slides using Mowiol (Calbiochem, San Diego, CA) mounting medium.

In data set [4] the test system is HEK293(β3) cells (high levels of αVβ3). The data set is described as above. Type of data set: cell-based, human. The note with it: 0.1 μM Cy5-labeled peptide, 30 min, 37°C, result in words. The protocol: as §1

“Cy5-RAFT-c(-RGDfK-)4 (bicyclic or more) [Cy5-labeled tetramer: four c[-RGDfK-] grafted via oxime bond on RAFT cyclic decapeptide, Cy5 on the opposite side lysine]”: the “distribution / internalization in tumor cells of excised tumors (CLSM, words)” value in data set [1] is reported as “massively internalized by tumor cells”. Besides, the “tumor contrast (T/S ratio, tumor vs. skin)” value in data set [2] (HEK293(β3) s.c. tumor, 10 nmol i.v., 4 hr p.i., mean ± SD, n = 3–4) turned out to be 15.9 ± 3.6. In addition, in data set [2] (i.v. injection, tumor-bearing or normal mice, not modified by excess of unlabeled tetramer or monomer), the “renal uptake” value was “higher renal uptake than Cy5-cRGD”. In addition, the tumor/skin ratio result in data set [2] (intravenous injection, HEK293(β3) tumors, time not stated (abstract)) is reported as “above 15”. The “binding to HEK293(β1) cells (CLSM)” value in data set [3] was “none of these peptides bound”. For the same substance, the “binding to HEK293(β3) cells (CLSM)” value in data set [4] is reported as “very strongly”.
